This note sets out measurements from the NIST ThermoML archive (doi:10.1021/je800404f).

The structures appear in SMILES notation. ± gives the expanded uncertainty stated by the source.

The data set in a line: refractive index (Na D-line) (dimensionless). The conditions noted are these: 295.1 K; 101.33 kPa; Liquid; Standard Abbe refractometry.
With `CC#N` [acetonitrile], the refractive index worked out at 1.3441 ± 0.0024.
Consider `CCCCCCC(=O)O` [heptanoic acid], for which the refractive index turned out to be 1.4175 ± 0.0024.
As to `CCCCCCCCCO` [nonan-1-ol], the refractive index turned out to be 1.4322 ± 0.0024.
Regarding `O` [water], the refractive index turned out to be 1.333 ± 0.0024.

For orientation: refractive index means a measure of how strongly the sample bends light.
